In test [1] the target is endothelin receptors. In words: Inhibition of endothelin binding to human placenta membranes. The conditions noted are these: 125I-endothelin 20 pM, 20° C. for 2 hours or 4° C. for 24 hours, read-out: IC50 (concentration required to inhibit 50% of the specific binding of 125I-endothelin). The protocol:
I: Inhibition of endothelin binding to human placenta membranes (see. Life Sci 44:1429 (1989))
Human placenta is homogenized in 5 mM Tris buffer, pH 7.4, which contains 1 mM MgCl2 and 250 mM sucrose. The homogenizate is centrifuged at 4° C. and 3000 g for 15 minutes, the supernatant containing the plasma membrane fraction is centrifuged with 72000 g for 30 minutes and the precipitate is washed with 75 mM Tris buffer, pH 7.4, which contains 25 mM MgCl2. Thereafter, precipitate obtained from, in each case, 10 g of original tissue is suspended in 1 ml of 75 mM Tris buffer, pH 7.4, containing 25 mM MgCl2 and 250 mM sucrose, and freeze-dried at -20° C. in 1 ml aliquots.
For the binding assay, the freeze-dried membrane preparations are thawed and, after centrifugation at 20° C. and 25000 g for 10 minutes, re-suspended in assay buffer (50 mM Tris buffer, pH 7.4, containing 25 mM MnCl2, 1 mM EDTA and 0.5% of bovine serum albumin). […] of this membrane suspension containing […] of protein are incubated with […] of ^125 I-endothelin (specific activity 2200 Ci/mMol) in assay buffer (25000 cpm, final concentration 20 pM) and […] of assay buffer containing varying concentrations of test compound. The incubation is carried out at 20° C. for 2 hours or at 4° C. for 24 hours. The separation of free and membrane-bound radioligands is carried out by filtration over a glass fibre filter.
The inhibitory activity of compounds of formula I determined in this test procedure is given in Table 1 as the IC50, that is, as the concentration […] which is required to inhibit 50% of the specific binding of ^125 I-endothelin.

Test [2] deals with rats. In words: Inhibitory activity on vasoconstriction in vivo in rats (renal ischaemia, renal perfusion by Doppler). Also on record: species or system rat. To be noted: 45 minutes renal ischaemia; compound given 10 minutes before, 5 mg/kg i.a. or 10 mg/kg i.v.; control tests 43±4% reduction vs preischaemic value. As to the method:
III. The inhibitory activity of the compounds of formula I on vasoconstriction can be observed in vivo in rats in the test procedure described hereinafter:
Rats were anaesthetized with Na thiobutabarbital (100 mg/kg i.p.). A catheter for measuring the systemic arterial blood pressure was placed through the femoral artery and a catheter was placed in the vena cava via the femoral vein for injection of the test compounds. A Doppler sonde was placed around the left renal artery and attached to a Doppler measuring apparatus. A renal ischaemia was produced by pinching off the left renal artery at its point of exit for 45 minutes. 10 minutes prior to the induction of the ischaemia the test compounds were administered intraarterially (i.a.) in dosages of 5 mg/kg or intravenously (i.v.) in dosages of 10 mg/kg. In control tests, the renal perfusion was reduced by 43±4% compared to the preischaemic value.

Test [3] has as its system isolated rat aorta rings (endothelin-induced contractions). In words: Inhibition of endothelin-induced contractions in isolated rat aorta rings. The test is classed as cell-based, rat (adult Wistar-Kyoto). The conditions noted are these: in the absence of test compounds; read-out: EC50 of endothelin (concentration required for a half-maximum contraction). As to the method:
II. Inhibition of endothelin-induced contractions in isolated rat aorta rings
Rings with a length of 5 mm were cut out from the thorax aorta of adult Wistar-Kyoto rats. The endothelium was removed by lightly rubbing the internal surface. Each ring was immersed at 37° C. in 10 ml of Krebs-Henseleit solution in an isolated bath while gassing with 95% O2 and 5% CO2. The isometric stretching of the rings was measured. The rings were stretched to a pretension of 3 g. After incubation for 10 minutes with the test compound or vehicle, cumulative dosages of endothelin-1 were added. The activity of the test compound was determined by calculating the dosage ratios, that is, the shift to the right (shift to higher values) of the EC50 of endothelin induced by […] of test compound, with EC50 denoting the endothelin concentration required for a half-maximum contraction. […] The EC50 of endothelin in the absence of test compounds is 0.3 nM.

With `COc1ccccc1Oc1c(NS(=O)(=O)c2ccc(C(C)C)cc2)ncnc1OCCO` [Example 2, N-[6-(hydroxyethoxy)-5-(o-methoxyphenoxy)-4-pyrimidinyl]-p-isopropylbenzenesulfonamide], in test [1], the IC50 is 100 nM.

Regarding `COc1cccc(Oc2c(NS(=O)(=O)c3ccc(C(C)(C)C)cc3)ncnc2OCCO)c1` [Example 6, p-t-butyl-N-[6-(2-hydroxyethoxy)-5-(m-methoxyphenoxy)-4-pyrimidinyl]benzenesulphonamide], the IC50 in test [1] was 200 nM. Besides, the “% Decrease in renal perfusion” value in test [2] stood at 11.7 ± 4.7%.

For `COc1ccccc1Oc1c(NS(=O)(=O)c2ccc(C(C)C)cc2)nc(-c2ccccc2)nc1OCCO` [Example 12, N-[6-(2-hydroxyethoxy)-5-(o-methoxyphenoxy)-2-phenyl-4-pyrimidinyl]-p-isopropylbenzenesulfonamide], in test [1], the IC50 is 125 nM.

As to `COc1ccccc1Oc1c(NS(=O)(=O)c2ccc(C(C)(C)C)cc2)ncnc1OCCO` [Example 1, p-t-butyl-N-[6-(2-hydroxyethoxy)-5-(o-methoxyphenoxy)-4-pyrimidinyl]benzenesulfonamide], the IC50 in test [1] is 115 nM. In addition, in test [2], the “% Decrease in renal perfusion” value was 13.4 ± 5.2%.

For `CC(C)(C)c1ccc(S(=O)(=O)Nc2ncnc(OCCO)c2Oc2ccc3c(c2)OCO3)cc1` [Example 27, N-[5-(1,3-benzodioxol-5-yloxy)-6-(2-hydroxyethoxy)-4-pyrimidinyl]-p-tert-butylbenzenesulfonamide], in test [1], the IC50 was determined as 99 nM.

Consider `COc1ccccc1Oc1c(NS(=O)(=O)c2ccc(C(C)C)cc2)nc(C)nc1OCCO` [Example 24, N-[6-(2-hydroxyethoxy)-5-(o-methoxyphenoxy)-2-methyl-4-pyrimidinyl]-p-isopropylbenzenesulfonamide], for which the IC50 in test [1] is 73 nM.

In the case of `COc1ccccc1Oc1c(NS(=O)(=O)c2ccc(C(C)C)cc2)nc(C(F)(F)F)nc1OCCO` [Example 25], the IC50 in test [1] was found to be 50 nM.

Regarding “endothelin: endothelin-1, agonist added in cumulative dosages to contract rat aorta rings”, the EC50 in test [3] came out at 0.3 nM.

(Values after patent publication US5292740A, “Sulfonamides” (Hoffmann-La Roche Inc., priority 1991, dated 1994).)
